Reference: paper PMC3978604 (Arthritis Research & Therapy, 2013)
Where two headings read alike, the source gives them in different places.

Tests used:
[1] = biological target: SYK (Homo sapiens, UniProt P43405); test: Whole blood assays of SYK inhibition; assay type: cell-based
[2] = system: panel of 392 wild-type (non-mutant) protein kinases; test: KINOMEscan ATP binding site competition assay, kinase panel selectivity; details: including JAK and vascular endothelial growth factor receptor; data not shown
[3] = system: Ramos B-cell line; test: cells; details: Homo sapiens, read-out: IC50, anti-IgM-activated calcium flux
Protocol: Baseline fluorescence was recorded for about 20 seconds followed by stimulation with mouse anti-human IgM (10 μg/ml, clone M2E6; Antibody Solutions Inc., Mountain View, CA, USA) for Ramos cells or mouse anti-human CD3 (10 μg/ml; BD Biosciences) for Jurkat cells, and the maximal fluorescent counts in each well were recorded.

[4] = system: Jurkat T-cell line; test: Anti-CD3-induced calcium flux (FLIPR); assay type: cell-based; details: Homo sapiens, read-out: IC50, T-cell receptor (anti-CD3)-induced calcium flux
[5] = system: human PBMCs; test: cells; details: PBMC, read-out: IC50, BCR-dependent cell surface CD69 expression in CD20+ B cells
Protocol: (§1) The samples were stained with PE mouse anti-human CD20 and APC mouse anti-human CD69. The percentage of activated (CD69^hi) B cells was determined using unstimulated (negative control) and stimulated (positive control) samples as references.

[6] = system: human whole blood; test: cells; details: B-cell, read-out: IC50, BCR-dependent cell surface CD69 expression in CD20+ B cells
Protocol: as §1

[7] = system: human monocytes; test: cells; details: Monocyte
Protocol: Peripheral blood mononuclear cells (PBMCs) were isolated by centrifugation from heparinized blood in a Vacutainer CPT Cell Preparation Tube (BD Biosciences). PBMCs were cultured for 1 to 2 hours to allow monocytes to adhere, and nonadherent cells were washed away. The monocytes were stimulated with human IgG-coated (Jackson Immunology, West Grove, PA, USA) copolymer microsphere beads (Thermo Scientific, Fremont, CA, USA) or lipopolysaccharide (1 ng/ml; Sigma-Aldrich) for 4 hours. TNFα levels in supernatants were determined by enzyme-linked immunosorbent assay kits (BD Biosciences).

[8] = system: human mast cells; test: cells; details: Mast cell, read-out: IC50, IgE/antigen-induced histamine release
Protocol: The method has been reported previously by our group. […] For measuring histamine release, cells were sensitized with 0.1 μg/ml anti-4-hydroxy-3-nitrophenylacetyl hapten IgE (Serotec, Raleigh, NC, USA) overnight, and then cross-linked with 1 μg/ml NP(30)-BSA (Biosearch Technologies, Novato, CA, USA) for 30 minutes. Supernatants were collected and assayed for histamine release using a histamine enzyme immunoassay (Oxford Biomedical Research, Rochester Hills, MI, USA). The percentage of histamine release was calculated by comparing various treatments with positive control.

[9] = system: human PBMCs, CD3+ T cells; test: IL-2-induced STAT5 phosphorylation in CD3+ T cells (flow cytometry); assay type: cell-based; details: for effect on phosphorylation of STAT5: at 1 μM, IL-2 stimulated CD3+ T cells
Protocol: (§2) Human PBMCs were pre-incubated with compound for 30 minutes followed by 20 minutes stimulation with IL-2 (100 ng/ml) for signal transducers and activators of transcription 5 (STAT5) phosphorylation or IFNγ (100 ng/ml) for STAT1 phosphorylation.

[10] = system: human PBMCs, CD14+ monocytes; test: IFNγ-induced STAT1 phosphorylation in CD14+ monocytes (flow cytometry); assay type: cell-based; details: IFNγ-treated CD14+ monocytes; except at the highest concentration tested (10 μM)
Protocol: as §2

[11] = system: mouse bone marrow macrophages; test: RANK-L/M-CSF mediated osteoclastogenesis, TRAP+ multinuclear cells; assay type: cell-based; details: in the presence of more than 0.4 μM
Protocol: Bone marrow cells were obtained from C57BL/6 mouse tibiae and suspended in culture medium supplemented with monocyte colony-stimulating factor (100 ng/ml) for 16 hours. […] The cells were stained using a tartrate-resistant acid phosphate (TRAP) staining kit (Sigma, St Louis, MO, USA). TRAP^+ multinuclear cells were counted for each well under a microscope.

[12] = system: human B cells; test: TLR9-mediated plasmablast differentiation (ODN2006 + IL-2, 6 days); assay type: cell-based
Protocol: Human B cells were differentiated with ODN2006 (50 nM) and IL-2 (10 ng/ml) for 6 days. The differentiated cells were stained with V450 anti-CD38, FITC anti-CD20, PE anti-CD19 and APC intracellular IgM. The plasmablasts were identified as CD19^+CD38^+CD20^–IgM^+ cells. The production of IgG and IgM was quantitated by AlphaLISA.

[13] = system: human plasmacytoid dendritic cells; test: TLR9-mediated pDC activation (ODN2216, 2 days); assay type: cell-based; details: human pDCs, concentration-dependent
Protocol: Human plasmacytoid dendritic cells (pDCs) were isolated by negative selection from PBMCs with the human pDC Isolation Kit (Miltenyi Biotec, Auburn, CA, USA). The purity was confirmed with CD303 (BDCA-2; Miltenyi Biotec) staining and stimulated with ODN2216 (1 μM) for 2 days. The production of IFNα and TNFα was measured by AlphaLISA.

[14] = Pharmacokinetics after single oral dosing in mouse; assay type: in vivo; details: plasma
[15] = system: DBA1/J mice with collagen-induced arthritis; test: Murine collagen-induced arthritis model (mCIA); assay type: in vivo, mouse
Protocol: The mCIA model has been reported previously. Briefly, DBA1/J male mice were injected intradermally with 0.1 ml bovine type II collagen (100 μg; Chondrex Inc., Redmond, WA, USA) and complete Freund’s adjuvant (200 μg; Difco, Detroit, MI, USA) followed by second immunization on day 21 with bovine type II collagen and incomplete Freund adjuvant. […] Clinical arthritis scores (1 to 4) of individual paws were assessed and the arthritic index for each mouse was determined by adding the individual scores of all four paws. The level of cytokines in serum was determined by Luminex analysis (Millipore, Billerica, MA, USA). Hind paws from CIA mice were collected into 10% neutral buffered formalin. After decalcification in 10% formic acid, paws were embedded in paraffin, sectioned at 8 μm and stained with toluidine blue. Inflammation (infiltration of inflammatory cells), pannus, cartilage damage, and bone resorption were scored in a double-blinded fashion by a board-certified pathologist at Boulder BioPATH, Inc. (Boulder, CO, USA) using standard criteria, with 0 being normal and 5 being the most severe.

[16] = system: mouse whole blood B220+ B cells; test: Ex vivo anti-IgD-induced CD69 expression on B220+ B cells in whole blood of dosed CIA mice; details: 2 and 5 hours post dose
[17] = system: JAK1; test: KINOMEscan ATP binding site competition assay; details: 1 μM compound; truncated recombinant JAK1
[18] = biological target: JAK3 (Homo sapiens, UniProt P52333); test: KINOMEscan ATP binding site competition assay; details: 1 μM compound; truncated recombinant JAK3
JAK3, sequence (P52333 811-1124 limits assumed): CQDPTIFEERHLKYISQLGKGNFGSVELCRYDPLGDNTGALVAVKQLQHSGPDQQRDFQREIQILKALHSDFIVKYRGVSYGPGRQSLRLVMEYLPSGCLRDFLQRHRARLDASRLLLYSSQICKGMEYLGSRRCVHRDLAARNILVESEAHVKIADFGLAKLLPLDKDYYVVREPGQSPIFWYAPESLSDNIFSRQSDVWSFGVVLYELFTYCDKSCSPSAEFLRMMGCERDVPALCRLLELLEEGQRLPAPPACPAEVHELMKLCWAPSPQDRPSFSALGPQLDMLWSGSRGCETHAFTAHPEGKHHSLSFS

[19] = system: Ramos cells; test: Western blot of anti-IgM induced phosphorylation of BTK, PLCγ2, AKT and ERK; details: 1 μM pretreatment
Text: The protein phosphorylation was detected with rabbit antibodies of anti-phospho-BTK(Y223) (Epitomics Inc., Burlingame, CA, USA), anti-phospho-PLCγ2(Y1217), anti-phospho-ERK(T202/Y204) or anti-phospho-AKT(S473).

COc1cc(Nc2ncc(F)c(Nc3ccc4c(n3)N(COP(=O)(O)O)C(=O)C(C)(C)O4)n2)cc(OC)c1OC [R788]
SYK inhibition in whole blood assays [1]: relatively weak | kinase selectivity in the KinaseScan assay [2]: inhibiting one-half of the kinome

Cc1ccc(Nc2cc(N[C@@H]3CCCC[C@@H]3N)nnc2C(N)=O)nc1C [RO9021, 6-[(1R,2S)-2-amino-cyclohexylamino]-4-(5,6-dimethyl-pyridin-2-ylamino)-pyridazine-3-carboxylic acid amide]
IC50 [3]: 78 ± 21 nM | IC50 [4]: 910 ± 270 nM | IC50 [5]: 83 nM | IC50 [6]: 87 nM | IC50 ([7]; 4 h, read-out: IC50, TNFα production induced by crosslinking of FcγR): 63 ± 19 nM | IC50 ([7]; read-out: IC50, TLR4-dependent TNFα production): 2900 ± 900 nM | IC50 [8]: 22.8 ± 1.7 nM | IC50 ([9]; Homo sapiens, T-cell, read-out: IC50, IL-2-induced STAT5 phosphorylation): 1320 ± 660 nM | effect on phosphorylation of STAT5 [9]: no significant effect | effect on phosphorylation of STAT1 [10]: no effect | TRAP+ cells [11]: barely detectable | production of IL-6 in the supernatant [12]: reduced | production of IgG in the supernatant [12]: reduced | production of IgM in the supernatant [12]: reduced | production of IFNα [13]: inhibited | production of TNFα [13]: inhibited | AUC ([14]; single oral dose 5 mg/kg): 3.85 µM·h | Cmax ([14]; single oral dose 5 mg/kg): 0.695 µM | Tmax ([14]; single oral dose 5 mg/kg): 1 h | half-life ([14]; single oral dose 5 mg/kg): 4.34 h | AUC ([14]; single oral dose 45 mg/kg): 35.8 µM·h | Cmax ([14]; single oral dose 45 mg/kg): 5.76 µM | Tmax ([14]; single oral dose 45 mg/kg): 0.5 h | half-life ([14]; single oral dose 45 mg/kg): 3.54 h | histopathology of hind paws (inflammation, pannus, cartilage damage, bone resorption) ([15]; 5 and 45 mg/kg orally daily for 14 days): vehicle-treated, but not RO9021-treated, mice had severe inflammation and cartilage damage | arthritis progression, clinical scores ([15]; 5 and 45 mg/kg orally daily for 14 days from day 21, significant in both groups vs vehicle): inhibited arthritis progression in a dose-dependent manner | serum level of IL-6 ([15]; after 14 days of treatment): markedly reduced | serum level of KC(CXCL1) ([15]; after 14 days of treatment): markedly reduced | anti-IgD-induced CD69 expression on B cells (B220+), ex vivo [16]: inhibited | competition with compound (JAK1) [17]: more than 90% | competition with compound (JAK3) [18]: more than 90% | anti-IgM induced phosphorylation of BTK, PLCγ2, AKT and ERK [19]: inhibited

C[C@@H]1CCN(C(=O)CC#N)C[C@@H]1N(C)c1ncnc2[nH]ccc12 [tofacitinib, reference compound]
effect on phosphorylation of STAT5 [9]: completely blocked
